Laboratory results from patent US20230085307A1, “PYRIDAZINONE COMPOUND AND HERBICIDE” (NISSAN CHEMICAL CORPORATION, priority 2019, published 2023).

Experiments:
redroot pigweed [1] = assay: Test Example 5: herbicidal effect by foliage application, plastic box (Table 20, symbol N); format: in vivo, redroot pigweed (Amaranthus retroflexus); conditions: evaluated three weeks after application
Procedure, shortened: (§1)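 Plants sown in sterilized diluvial soil and grown 14 days in a greenhouse at 25° C to 30° C, then sprayed on the foliage with the compound's emulsion diluted in water to a predetermined herbicide amount. Injury to weeds and crops scored three weeks after application on a visual rating scale.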

velvetleaf [2] = assay: Test Example 4: herbicidal effect by soil treatment (Table 19, symbol M); format: in vivo, velvetleaf (Abutilon theophrasti); conditions: amount of applied herbicide 320 g/ha
Procedure, shortened: (§2)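 Seeds were sown in sterilized diluvial soil and covered with about 1.5 cm of soil. An emulsion formulation diluted with water to a predetermined herbicide amount was sprayed evenly onto the soil surface. Plants grew in a greenhouse at 25° C. to 30° C., and the effect was scored three weeks after application using criteria from an earlier test.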

barnyard grass [3] = assay: Test Example 5: herbicidal effect by foliage application, plastic box (Table 20, symbol H); format: in vivo, barnyard grass (Echinochloa crus-galli); conditions: evaluated three weeks after application
Procedure, shortened: as §1

barnyard grass [4] = assay: Test Example 3: herbicidal effect by foliage application, Wagner pot (Table 18, symbol H); format: in vivo, barnyard grass (Echinochloa crus-galli)
Procedure, shortened: (§3)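 Plants were sown in alluvial soil held under 0.1–0.5 cm standing water and grown 14 days in a greenhouse at 25–30 °C. An emulsifiable formulation, water-diluted to the set dose, was then sprayed onto the foliage, and effects were scored three weeks later using previously defined criteria.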

wild oat [5] = assay: Test Example 5: herbicidal effect by foliage application, plastic box (Table 20, symbol I); format: in vivo, wild oat (Avena fatua); conditions: evaluated three weeks after application
Procedure, shortened: as §1

persian speedwell = assay: Test Example 5: herbicidal effect by foliage application, plastic box (Table 20, symbol R); format: in vivo, Persian speedwell (Veronica persica); conditions: evaluated three weeks after application
Procedure, shortened: as §1

redroot pigweed [6] = assay: Test Example 4: herbicidal effect by soil treatment (Table 19, symbol N); format: in vivo, redroot pigweed (Amaranthus retroflexus); conditions: amount of applied herbicide 320 g/ha
Procedure, shortened: as §2

wild oat [7] = assay: Test Example 4: herbicidal effect by soil treatment (Table 19, symbol I); format: in vivo, wild oat (Avena fatua); conditions: amount of applied herbicide 320 g/ha
Excerpt: (§4) [Test Example 4] Herbicidal Effect Test by Soil Treatment
(§5) Sterilized diluvial soil was placed in a plastic box having a length of 21 cm, a width of 13 cm, and a depth of 7 cm. The seeds of each of southern crabgrass, green foxtail, barnyard grass, wild oat, blackgrass, Italian ryegrass, windgrass, velvetleaf, redroot pigweed, lambsquarters, chickweed, false cleavers, persian speedwell, corn, soybean, rice, wheat, beet, and rapeseed were sowed in a spot-like manner and covered with the soil having a thickness of about 1.5 cm. Subsequently, the emulsion agent of the compound of the present invention prepared according to Formulation Example 2 was diluted with water so as to achieve a predetermined herbicide amount, and the diluted emulsion agent was uniformly applied to the surface of the soil with a small-sized spray. The plastic box was placed in a greenhouse at 25° C. to 30° C. for growth of the plants. Three weeks after the herbicide application, the effect of the herbicide on each plant was evaluated according to the criteria of Test Example 1.

lambsquarters [8] = assay: Test Example 4: herbicidal effect by soil treatment (Table 19, symbol O); format: in vivo, lambsquarters (Chenopodium album); conditions: amount of applied herbicide 320 g/ha
Procedure, shortened: as §2

windgrass [9] = assay: Test Example 4: herbicidal effect by soil treatment (Table 19, symbol L); format: in vivo, windgrass (Apera spica-venti); conditions: amount of applied herbicide 320 g/ha
Excerpt: as §4, §5

green foxtail [10] = assay: Test Example 5: herbicidal effect by foliage application, plastic box (Table 20, symbol G); format: in vivo, green foxtail (Setaria viridis); conditions: evaluated three weeks after application
Procedure, shortened: as §1

barnyard grass [11] = assay: Test Example 4: herbicidal effect by soil treatment (Table 19, symbol H); format: in vivo, barnyard grass (Echinochloa crus-galli); conditions: amount of applied herbicide 320 g/ha
Procedure, shortened: as §2

windgrass [12] = assay: Test Example 5: herbicidal effect by foliage application, plastic box (Table 20, symbol L); format: in vivo, windgrass (Apera spica-venti); conditions: evaluated three weeks after application
Procedure, shortened: as §1

lambsquarters [13] = assay: Test Example 5: herbicidal effect by foliage application, plastic box (Table 20, symbol O); format: in vivo, lambsquarters (Chenopodium album); conditions: evaluated three weeks after application
Procedure, shortened: as §1

Italian ryegrass [14] = assay: Test Example 4: herbicidal effect by soil treatment (Table 19, symbol K); format: in vivo, Italian ryegrass (Lolium multiflorum); conditions: amount of applied herbicide 320 g/ha
Excerpt: as §4, §5

blackgrass [15] = assay: Test Example 4: herbicidal effect by soil treatment (Table 19, symbol J); format: in vivo, blackgrass (Alopecurus myosuroides); conditions: amount of applied herbicide 320 g/ha
Excerpt: as §4, §5

chickweed [16] = assay: Test Example 5: herbicidal effect by foliage application, plastic box (Table 20, symbol P); format: in vivo, common chickweed (Stellaria media); conditions: evaluated three weeks after application
Procedure, shortened: as §1

Italian ryegrass [17] = assay: Test Example 5: herbicidal effect by foliage application, plastic box (Table 20, symbol K); format: in vivo, Italian ryegrass (Lolium multiflorum); conditions: evaluated three weeks after application
Procedure, shortened: as §1

Chinese sprangletop = assay: Test Example 3: herbicidal effect by foliage application, Wagner pot (Table 18, symbol D); format: in vivo, chinese sprangletop (Leptochloa chinensis)
Procedure, shortened: as §3

rice flat sedge = assay: Test Example 3: herbicidal effect by foliage application, Wagner pot (Table 18, symbol E); format: in vivo, rice flat sedge (Cyperus iria)
Procedure, shortened: as §3

chickweed [18] = assay: Test Example 4: herbicidal effect by soil treatment (Table 19, symbol P); format: in vivo, common chickweed (Stellaria media); conditions: amount of applied herbicide 320 g/ha
Excerpt: as §4, §5

velvetleaf [19] = assay: Test Example 5: herbicidal effect by foliage application, plastic box (Table 20, symbol M); format: in vivo, velvetleaf (Abutilon theophrasti); conditions: evaluated three weeks after application
Procedure, shortened: as §1

green foxtail [20] = assay: Test Example 4: herbicidal effect by soil treatment (Table 19, symbol G); format: in vivo, green foxtail (Setaria viridis); conditions: amount of applied herbicide 320 g/ha
Procedure, shortened: as §2

southern crabgrass [21] = assay: Test Example 4: herbicidal effect by soil treatment (Table 19, symbol F); format: in vivo, southern crabgrass (Digitaria ciliaris); conditions: amount of applied herbicide 320 g/ha
Procedure, shortened: as §2

southern crabgrass [22] = assay: Test Example 5: herbicidal effect by foliage application, plastic box (Table 20, symbol F); format: in vivo, southern crabgrass (Digitaria ciliaris); conditions: evaluated three weeks after application
Procedure, shortened: as §1

blackgrass [23] = assay: Test Example 5: herbicidal effect by foliage application, plastic box (Table 20, symbol J); format: in vivo, blackgrass (Alopecurus myosuroides); conditions: amount of applied herbicide 320 g/ha; foliage application after 14-day growth; evaluated three weeks after application
Procedure, shortened: as §1

[24] = foliage application, AAH 320 g/ha
[25] = amount of applied herbicide 320 g/ha
[26] = amount of applied herbicide 320 g/ha, foliage application after 14-day growth

Compound: CCCC(=O)Oc1c(C)nn(C)c(=O)c1-c1c(-c2cccc(OCc3ccccc3)c2)sc2ccc(F)cc12 [2-268]
- N: redroot pigweed, herbicidal effect (criteria 0-5) (redroot pigweed [1]; [24]): 3 (Herbicidal rate of 40% or more and less than 70%)
- herbicidal effect on M: velvetleaf (velvetleaf [2]): 0 (Herbicidal rate of 5% or less (almost no effect))
- H: barnyard grass, herbicidal effect (criteria 0-5) (barnyard grass [3]; [24]): 4 (Herbicidal rate of 70% or more and less than 90%)
- herbicidal effect on H: barnyard grass (barnyard grass [4]; [25]): 4 (Herbicidal rate of 70% or more and less than 90%)
- I: wild oat, herbicidal effect (criteria 0-5) (wild oat [5]; [24]): 0 (Herbicidal rate of 5% or less (almost no effect))
- R: persian speedwell, herbicidal effect (criteria 0-5) (persian speedwell; [24]): 4 (Herbicidal rate of 70% or more and less than 90%)
- herbicidal effect on N: redroot pigweed (redroot pigweed [6]): 0 (Herbicidal rate of 5% or less (almost no effect))
- herbicidal effect on I: wild oat (wild oat [7]): 0 (Herbicidal rate of 5% or less (almost no effect))
- herbicidal effect on O: lambsquarters (lambsquarters [8]): 0 (Herbicidal rate of 5% or less (almost no effect))
- herbicidal effect on L: windgrass (windgrass [9]): 0 (Herbicidal rate of 5% or less (almost no effect))
- G: green foxtail, herbicidal effect (criteria 0-5) (green foxtail [10]; [24]): 4 (Herbicidal rate of 70% or more and less than 90%)
- herbicidal effect on H: barnyard grass (barnyard grass [11]): 0 (Herbicidal rate of 5% or less (almost no effect))
- L: windgrass, herbicidal effect (criteria 0-5) (windgrass [12]; [24]): 1 (Herbicidal rate of 5% or more and less than 20%)
- O: lambsquarters, herbicidal effect (criteria 0-5) (lambsquarters [13]; [24]): 3 (Herbicidal rate of 40% or more and less than 70%)
- herbicidal effect on K: Italian ryegrass (Italian ryegrass [14]): 3 (Herbicidal rate of 40% or more and less than 70%)
- herbicidal effect on J: blackgrass (blackgrass [15]): 0 (Herbicidal rate of 5% or less (almost no effect))
- P: chickweed, herbicidal effect (criteria 0-5) (chickweed [16]; [24]): 5 (Herbicidal rate of 90% or more (almost completely withered))
- K: Italian ryegrass, herbicidal effect (criteria 0-5) (Italian ryegrass [17]; [24]): 2 (Herbicidal rate of 20% or more and less than 40%)
- herbicidal effect on D: Chinese sprangletop (Chinese sprangletop; [25]): 3 (Herbicidal rate of 40% or more and less than 70%)
- herbicidal effect on E: rice flat sedge (rice flat sedge; [25]): 3 (Herbicidal rate of 40% or more and less than 70%)
- herbicidal effect on P: chickweed (chickweed [18]): 0 (Herbicidal rate of 5% or less (almost no effect))
- M: velvetleaf, herbicidal effect (criteria 0-5) (velvetleaf [19]; [24]): 1 (Herbicidal rate of 5% or more and less than 20%)
- herbicidal effect on G: green foxtail (green foxtail [20]): 0 (Herbicidal rate of 5% or less (almost no effect))
- herbicidal effect on F: southern crabgrass (southern crabgrass [21]): 0 (Herbicidal rate of 5% or less (almost no effect))
- F: southern crabgrass, herbicidal effect (criteria 0-5) (southern crabgrass [22]; [24]): 1 (Herbicidal rate of 5% or more and less than 20%)

Compound: Cc1nn(C)c(=O)c(-c2c(-c3ccc(C(F)(F)F)cc3)sc3cc(Cl)c(Cl)cc23)c1O [5-047]
- Herbicidal effect by foliage application, N: redroot pigweed (redroot pigweed [1]; [26]): 3 (Herbicidal rate of 40% or more and less than 70%)
- Herbicidal effect by foliage application, H: barnyard grass (barnyard grass [3]; [26]): 0 (Herbicidal rate of 5% or less (almost no effect))
- herbicidal effect on barnyard grass (H) (barnyard grass [4]; 320 g/ha): 3 (Herbicidal rate of 40% or more and less than 70%)
- Herbicidal effect by foliage application, I: wild oat (wild oat [5]; [26]): 0 (Herbicidal rate of 5% or less (almost no effect))
- Herbicidal effect by foliage application, R: persian speedwell (persian speedwell; [26]): 0 (Herbicidal rate of 5% or less (almost no effect))
- Herbicidal effect by foliage application, G: green foxtail (green foxtail [10]; [26]): 0 (Herbicidal rate of 5% or less (almost no effect))
- Herbicidal effect by foliage application, J: blackgrass (blackgrass [23]): 0 (Herbicidal rate of 5% or less (almost no effect))
- Herbicidal effect by foliage application, L: windgrass (windgrass [12]; [26]): 2 (Herbicidal rate of 20% or more and less than 40%)
- Herbicidal effect by foliage application, O: lambsquarters (lambsquarters [13]; [26]): 1 (Herbicidal rate of 5% or more and less than 20%)
- Herbicidal effect by foliage application, P: chickweed (chickweed [16]; [26]): 0 (Herbicidal rate of 5% or less (almost no effect))
- Herbicidal effect by foliage application, K: Italian ryegrass (Italian ryegrass [17]; [26]): 0 (Herbicidal rate of 5% or less (almost no effect))
- herbicidal effect on Chinese sprangletop (D) (Chinese sprangletop; 320 g/ha): 0 (Herbicidal rate of 5% or less (almost no effect))
- herbicidal effect on rice flat sedge (E) (rice flat sedge; 320 g/ha): 0 (Herbicidal rate of 5% or less (almost no effect))
- Herbicidal effect by foliage application, M: velvetleaf (velvetleaf [19]; [26]): 0 (Herbicidal rate of 5% or less (almost no effect))
- Herbicidal effect by foliage application, F: southern crabgrass (southern crabgrass [22]; [26]): 0 (Herbicidal rate of 5% or less (almost no effect))
